Source: patent US10189854B2, “Substituted pyrimidine compounds” (Grünenthal GmbH, priority 2014, dated 2019)

The compounds below were run against human PDE4B1 (Homo sapiens (Human), UniProt Q07343) (assay: TR-FRET assay using the LANCE Ultra cAMP kit to determine the activity of hPDE4B1). Details: IC50 inhibition of PDE4B, mean.
Assay type: biochemical
How it was run: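 Recombinant human PDE4B1 (Sf9-expressed, 0.96 U) incubated with compound and 500 nM cAMP in 50 mM Tris-HCl, 50 mM MgCl2, 5 mM DTT, pH 8.5, 30 min at room temperature. Residual cAMP read by TR-FRET (665/620 nm ratio) after IBMX stop. IC50 from ten-concentration curves as % inhibition of control.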

Sequence of human PDE4B1 (Q07343 whole entry): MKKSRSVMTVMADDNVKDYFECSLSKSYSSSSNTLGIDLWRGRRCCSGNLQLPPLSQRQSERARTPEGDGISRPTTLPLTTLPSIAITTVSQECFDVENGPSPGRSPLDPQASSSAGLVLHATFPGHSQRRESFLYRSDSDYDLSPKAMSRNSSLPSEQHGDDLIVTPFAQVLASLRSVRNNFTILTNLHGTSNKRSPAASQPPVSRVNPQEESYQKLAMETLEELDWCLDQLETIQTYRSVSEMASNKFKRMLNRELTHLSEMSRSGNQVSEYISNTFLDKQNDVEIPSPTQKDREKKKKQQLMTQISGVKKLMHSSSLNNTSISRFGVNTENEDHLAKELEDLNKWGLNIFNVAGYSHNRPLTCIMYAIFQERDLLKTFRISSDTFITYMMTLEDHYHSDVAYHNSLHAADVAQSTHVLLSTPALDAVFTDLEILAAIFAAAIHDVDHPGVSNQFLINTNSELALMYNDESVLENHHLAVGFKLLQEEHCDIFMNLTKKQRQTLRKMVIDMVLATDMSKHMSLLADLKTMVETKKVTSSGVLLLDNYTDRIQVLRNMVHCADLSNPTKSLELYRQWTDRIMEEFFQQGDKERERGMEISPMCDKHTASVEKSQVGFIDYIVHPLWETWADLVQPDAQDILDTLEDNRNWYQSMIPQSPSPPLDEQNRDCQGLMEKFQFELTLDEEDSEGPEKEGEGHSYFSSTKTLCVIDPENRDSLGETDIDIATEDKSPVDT

| Structure (SMILES) | IC50 [µM] |
| --- | --- |
| CC(=O)Nc1ccnc(-c2cnc(N3CC4(CC4)c4ccc(C(=O)N(C)CCO)cc43)nc2)c1 [Compound 252, 1-[5-(4-Acetylamino-pyridin-2-yl)-pyrimidin-2-yl]-N-(2-hydroxy-ethyl)-N-methyl-spiro[1,2-dihydro-indole-3,1′-cyclopropane]-6-carboxylic acid amide] | < 0.1 |
| COc1cnnc(-c2cnc(N3CC4(CC4)c4ccc(C(=O)N(C)CCO)cc43)nc2)c1 [Compound 340, N-(2-Hydroxy-ethyl)-1-[5-(5-methoxy-pyridazin-3-yl)-pyrimidin-2-yl]-N-methyl-spiro[1,2-dihydro-indole-3,1′-cyclopropane]-6-carboxylic acid amide] | < 0.1 |
| O=C(c1ccc2c(c1)N(c1ncc(-c3ccccn3)cn1)CC21CC1)N1C[C@@H]2C[C@H]1CN2 [Compound 304, [(1S,4S)-2,5-Diazabicyclo[2.2.1]heptan-2-yl]-[1-(5-pyridin-2-yl-pyrimidin-2-yl)-spiro[1,2-dihydro-indole-3,1′-cyclopropane]-6-yl]-methanone] | < 0.1 |
| CN(CCO)C(=O)c1ccc2c(c1)N(c1ncc(-c3cccc(C4CC4)c3)cn1)CC21CC1 [Compound 267, 1-[5-(3-Cyclopropyl-phenyl)-pyrimidin-2-yl]-N-(2-hydroxy-ethyl)-N-methyl-spiro[1,2-dihydro-indole-3,1′-cyclopropane]-6-carboxylic acid amide] | < 0.1 |
| CN(CCO)C(=O)c1ccc2c(c1)N(c1ncc(-c3cc(CO)cs3)cn1)CC21CC1 [Compound 347, N-(2-Hydroxy-ethyl)-1-[5-[4-(hydroxymethyl)-thiophen-2-yl]-pyrimidin-2-yl]-N-methyl-spiro[1,2-dihydro-indole-3,1′-cyclopropane]-6-carboxylic acid amide] | < 0.1 |
| CN(CCO)C(=O)c1ccc2c(c1)N(c1ncc(-c3cc(F)ccc3F)cn1)CC21CC1 [Compound 364, 1-[5-(2,5-Difluoro-phenyl)-pyrimidin-2-yl]-N-(2-hydroxy-ethyl)-N-methyl-spiro[1,2-dihydro-indole-3,1′-cyclopropane]-6-carboxylic acid amide] | < 0.1 |
| CC(O)c1ccc(F)c(-c2cnc(N3CC4(CC4)c4ccc(C(=O)N(C)CCO)cc43)nc2)c1 (stereo not shown) [Compound 312, 1-[5-[2-Fluoro-5-(1-hydroxy-ethyl)-phenyl]-pyrimidin-2-yl]-N-(2-hydroxy-ethyl)-N-methyl-spiro[1,2-dihydro-indole-3,1′-cyclopropane]-6-carboxylic acid amide] | < 0.1 |
| Cc1ccnc(-c2cnc(N3CC4(CC4)c4ccc(C(=O)N5C[C@@H]6C[C@H]5CN6)cc43)nc2)c1 [Compound 297, [(1S,4S)-2,5-Diazabicyclo[2.2.1]heptan-2-yl]-[1-[5-(4-methyl-pyridin-2-yl)-pyrimidin-2-yl]-spiro[1,2-dihydro-indole-3,1′-cyclopropane]-6-yl]-methanone] | < 0.1 |
| CN(CCO)C(=O)c1ccc2c(c1)N(c1ncc(-c3cc(N4CCCC4)ccn3)cn1)CC21CC1 [Compound 315, N-(2-Hydroxy-ethyl)-N-methyl-1-[5-(4-pyrrolidin-1-yl-pyridin-2-yl)-pyrimidin-2-yl]-spiro[1,2-dihydro-indole-3,1′-cyclopropane]-6-carboxylic acid amide] | < 0.1 |
| CC(=O)Nc1ccnc(-c2cnc(N3CC4(CC4)c4ccc(C(=O)N5C[C@@H]6C[C@H]5CN6)cc43)nc2)c1 [Compound 338, N-[2-[2-[6-[(1S,4S)-2,5-Diazabicyclo[2.2.1]heptane-2-carbonyl]-spiro[1,2-dihydro-indole-3,1′-cyclopropane]-1-yl]-pyrimidin-5-yl]-pyridin-4-yl]-acetamide] | < 0.1 |
| Cc1cccc(-c2cnc(N3CC4(CC4)c4ccc(C(=O)N5C[C@@H]6C[C@H]5CN6)cc43)nc2)n1 [Compound 305, [(1S,4S)-2,5-Diazabicyclo[2.2.1]heptan-2-yl]-[1-[5-(6-methyl-pyridin-2-yl)-pyrimidin-2-yl]-spiro[1,2-dihydro-indole-3,1′-cyclopropane]-6-yl]-methanone] | < 0.1 |
| O=C(c1ccc2c(c1)N(c1ncc(-c3cc(C4CC4)ccn3)cn1)CC21CC1)N1CCC[C@H](CO)C1 [Compound 332, [1-[5-(4-Cyclopropyl-pyridin-2-yl)-pyrimidin-2-yl]-spiro[1,2-dihydro-indole-3,1′-cyclopropane]-6-yl]-[(3S)-3-(hydroxymethyl)-piperidin-1-yl]-methanone] | < 0.1 |
| Cc1cccc(-c2cnc(N3CC4(CC4)c4ccc(C(=O)N(C)C)cc43)nc2)n1 [Compound 303, N,N-Dimethyl-1-[5-(6-methyl-pyridin-2-yl)-pyrimidin-2-yl]-spiro[1,2-dihydro-indole-3,1′-cyclopropane]-6-carboxylic acid amide] | < 0.1 |
| CCNc1ccnc(-c2cnc(N3CC4(CC4)c4ccc(C(=O)N5CCOCC5)cc43)nc2)c1 [Compound 292, [1-[5-(4-Ethylamino-pyridin-2-yl)-pyrimidin-2-yl]-spiro[1,2-dihydro-indole-3,1′-cyclopropane]-6-yl]-morpholin-4-yl-methanone] | < 0.1 |
| Cc1cccc(-c2cnc(N3CC4(CC4)c4ccc(C(=O)N(C)CCO)cc43)nc2)n1 [Compound 234, N-(4-Hydroxy-ethyl)-N-methyl-1-[5-(6-methyl-pyridin-2-yl)-pyrimidin-2-yl]-spiro[1,2-dihydro-indole-3,1′-cyclopropane]-6-carboxylic acid amide] | < 0.1 |
| CN(CCO)C(=O)c1ccc2c(c1)N(c1ncc(-c3cccc(F)c3F)cn1)CC21CC1 [Compound 225, 1-[5-(2,3-Difluoro-phenyl)-pyrimidin-2-yl]-N-(2-hydroxy-ethyl)-N-methyl-spiro[1,2-dihydro-indole-3,1′-cyclopropane]-6-carboxylic acid amide] | < 0.1 |
| CNC(=O)CN(C)C(=O)c1ccc2c(c1)N(c1ncc(-c3cc(C)ccn3)cn1)CC21CC1 [Compound 360, N-Methyl-N-(methylcarbamoyl-methyl)-1-[5-(4-methyl-pyridin-2-yl)-pyrimidin-2-yl]-spiro[1,2-dihydro-indole-3,1′-cyclopropane]-6-carboxylic acid amide] | < 0.1 |
| CN(CCO)C(=O)c1ccc2c(c1)N(c1ncc(-c3ccnc(F)c3)cn1)CC21CC1 [Compound 231, 1-[5-(2-Fluoro-pyridin-4-yl)-pyrimidin-2-yl]-N-(2-hydroxy-ethyl)-N-methyl-spiro[1,2-dihydro-indole-3,1′-cyclopropane]-6-carboxylic acid amide] | < 0.1 |

Continued, values first:

| IC50 [µM] | Structure (SMILES) |
| --- | --- |
| < 0.1 | COc1cc(C)nc(-c2cnc(N3CC4(CC4)c4ccc(C(=O)N(C)CCO)cc43)nc2)c1 [Compound 282, N-(2-Hydroxy-ethyl)-1-[5-(4-methoxy--methyl-pyridin-2-yl)-pyrimidin-2-yl]-N-methyl-spiro[1,2-dihydro-indole-3,1′-cyclopropane]-6-carboxylic acid amide] |
| 0.1 to 1 | C[C@H](O)CN1CCN(C(=O)c2ccc3c(c2)N(c2ncc(-c4ccccc4F)cn2)CC32CC2)CC1 [Compound 240, [1-[5-(2-Fluorophenyl)-pyrimidin-2-yl]-spiro[1,2-dihydro-indole-3,1′-cyclopropane]-6-yl]-[4-[(2S)-2-hydroxy-propyl]-piperazin-1-yl]-methanone] |
| 0.1 to 1 | COC(=O)CN(C)C(=O)c1ccc2c(c1)N(c1ncc(-c3ccccc3F)cn1)CC21CC1 [Compound 246, 2-[[1-[5-(2-Fluorophenyl)-pyrimidin-2-yl]-spiro[1,2-dihydro-indole-3,1′-cyclopropane]-6-carbonyl]-methyl-amino]acetic acid methyl ester] |
| < 0.1 | Nc1ccnc(-c2cnc(N3CC4(CC4)c4ccc(C(=O)N5CCNC(=O)C5)cc43)nc2)c1 [Compound 258, 4-[1-[5-(4-Amino-pyridin-2-yl)-pyrimidin-2-yl]-spiro[1,2-dihydro-indole-3,1′-cyclopropane]-6-carbonyl]-piperazin-2-one] |
| < 0.1 | Cc1cnnc(-c2cnc(N3CC4(CC4)c4ccc(C(=O)N(C)CCO)cc43)nc2)c1 [Compound 290, N-(2-hydroxyethyl)-N-methyl-1′-(5-(5-methylpyridazin-3-yl)pyrimidin-2-yl)spiro[cyclopropane-1,3′-indoline]-6′-carboxamide] |
| < 0.1 | Cc1cccc(-c2cnc(N3CC4(CC4)c4ccc(C(=O)N(C)CC(N)=O)cc43)nc2)n1 [Compound 307, N-(Carbamoyl-methyl)-N-methyl-1-[5-(6-methyl-pyridin-2-yl)-pyrimidin-2-yl]-spiro[1,2-dihydro-indole-3,1′-cyclopropane]-6-carboxylic acid amide] |
| < 0.1 | CN(CCO)C(=O)c1ccc2c(c1)N(c1ncc(-c3cc(NCC4CC4)ccc3F)cn1)CC21CC1 [Compound 333, 1-[5-[5-(Cyclopropyl-methylamino)-2-fluoro-phenyl]-pyrimidin-2-yl]-N-(2-hydroxy-ethyl)-N-methyl-spiro[1,2-dihydro-indole-3,1′-cyclopropane]-6-carboxylic acid amide] |
| < 0.1 | Cc1cc(N)cc(-c2cnc(N3CC4(CC4)c4ccc(C(=O)N5CCOCC5)cc43)nc2)n1 [Compound 259, [1-[5-(4-Amino-6-methyl-pyridin-2-yl)-pyrimidin-2-yl]-spiro[1,2-dihydro-indole-3,1′-cyclopropane]-6-yl]-morpholin-4-yl-methanone] |
| < 0.1 | CN(CCO)C(=O)c1ccc2c(c1)N(c1ncc(-c3cc(N)ccc3F)cn1)CC21CC1 [Compound 228, 1-[5-(5-Amino-2-fluoro-phenyl)-pyrimidin-2-yl]-N-(2-hydroxy-ethyl)-N-methyl-spiro[1,2-dihydro-indole-3,1′-cyclopropane]-6-carboxylic acid amide] |
| < 0.1 | CCOc1ccnc(-c2cnc(N3CC4(CC4)c4ccc(C(=O)N(C)CCO)cc43)nc2)c1 [Compound 257, 1-[5-(4-Ethoxy-pyridin-2-yl)-pyrimidin-2-yl]-N-(2-hydroxy-ethyl)-N-methyl-spiro[1,2-dihydro-indole-3,1′-cyclopropane]-6-carboxylic acid amide] |
